Source: US20150175585A1, “FUSED QUINONIC COMPOUNDS” (CENTRO ATLANTICO DEL MEDICAMENTO S.A (CEAMED, S.A.), priority 2012, published 2015)

Key:
JAK2 = JAK2 phosphorylation western blot assay; format: cell-based, human; settings: 10 microM, HEL or K562 cells (table does not say which)
HEL cells = assay: Induction of apoptosis in HEL cells (annexin-V-FITC/propidium iodide flow cytometry); format: cell-based, human; settings: 24 or 48 hours
Method: FIG. 3. • Analysis of phosphatidylserine externalization in human erythroleukemia cells (HEL) treated with compound 4 or the reported JAK-STAT inhibitor WP 1066. A) At different concentrations for 24 hours. B) Representation of the data obtained after treatment of cells with 5 μM of compound 4 for 48 hours compared to vehicle. (C) Data obtained after treatment of the cells with a concentration of 5 μM of compound 4 for 24 or 48 hours. Data are representative of three experiments. * Signifies a P<0.01 difference from control. ^0 Signifies a P<0.001 difference from control.
Human erythroleukemia (HEL) cells, at a density of 1.5×10^5 cells/ml, were treated with compound 4 at the indicated concentrations for 24 or 48 hours. The cells were incubated with propidium iodide and annexin-V-FITC and the quantity of phosphatidylserine externalized was determined using flow cytometry.

N#Cc1ccc(C2C3=C(CCCC3=O)OC3=C2C(=O)c2ccccc2C3=O)cc1 (centres unmarked) [Compound 4, 4-(1,6,11-trioxo-2,3,4,6,11,12-hexahydro-1H-benzo[b]xanthen-12-yl)benzonitrile]
Activity (inhibition of JAK2 phosphorylation) (JAK2): ++ (++represents an inhibition at 10 microM > 50%) | apoptosis of HEL cells (phosphatidylserine externalization) (HEL cells): induced, in a dose and time dependent manner, apoptosis
